Data published in patent US6433001B1, “1H-indole-3-glyoxylamide sPLA2 inhibitors” (Eli Lilly and Company, priority 1994, dated 2002).
Structures can show the parent of a compound that is named as a salt. Where two headings read alike, the source gives them in different places.

Assays:
[1] = target: T1, Human Secreted Phospholipase A2 (Homo sapiens, UniProt P14555); assay: chromogenic assay for inhibitors of recombinant human secreted phospholipase A2; type: biochemical
T1 sequence (P14555 21-144): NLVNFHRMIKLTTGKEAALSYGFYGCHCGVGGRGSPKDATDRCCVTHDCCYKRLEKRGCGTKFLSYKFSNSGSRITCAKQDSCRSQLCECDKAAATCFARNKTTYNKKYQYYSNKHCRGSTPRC
Description: The following chromogenic assay procedure was used to identify and evaluate inhibitors of recombinant human secreted phospholipase A2. The assay described herein has been adapted for high volume screening using 96 well microtiter plates.
Adjust pH to 4.5 with acetic acid
DTNB—5,5′-dithiobis-2-nitrobenzoic acid
RACEMIC DIHEPTANOYL THIO—PC
racemic 1,2-bis(heptanoylthio)-1,2-dideoxy-sn-glycero-3-phosphorylcholine
TRITON X-100™ prepare at 6.249 mg/ml in reaction buffer to equal […].
A measured volume of racemic dipheptanoyl thio PC supplied in chloroform at a concentration of 100 mg/ml is taken to dryness and redissolved in 10 millimolar TRITON X-100™ nonionic detergent aqueous solution.
Reaction Buffer is added to the solution, then DTNB to give the Reaction Mixture.
The reaction mixture thus obtained contains 1 mM diheptanoly thio-PC substrate, 0.29 mm Triton X-100™ detergent, and 0.12 mm DTMB in a buffered aqueous solution at pH 7.5.
1. Add 0.2 ml reaction mixture to all wells;
2. Add 10 ul test compound (or solvent blank) to appropriate wells, mix 20 seconds;
3. Add 50 nanograms of sPLA2 (10 microliters) to appropriate wells;
4. Incubate plate at 40° C. for 30 minutes;
5. Read absorbance of wells at 405 nanometers with an automatic plate reader.
All compounds were tested in triplicate. […] Lack of color development at 405 nanometers evidenced inhibition. […] In all cases, % inhibition measured at 405 nanometers generated by enzyme reactions containing inhibitors relative to the uninhibited control reactions was determined. Each sample was titrated in triplicate and result values were averaged for plotting and calculation of IC50 values.

[2] = target: T1, Human Secreted Phospholipase A2; assay: guinea pig lung pleural strip tissue test, sPLA2-induced contraction; type: cell-based; conditions: guinea pig lung pleural strips; compound added 30 min. prior to sPLA2 concentration-response curves; pA2 interpreted as apparent KB; read-out: Tissue test secreted PLA2 Apparent KB
From the text: Male Hartley strain guinea pigs (500-700 g) were killed by cervical dislocation and their heart and lungs removed intact and placed in aerated (95% O2:5% CO2) Krebs buffer. Dorsal pleural strips (4×1×25 mm) were dissected from intact parenchymal segments (8×4×25 mm) cut parallel to the outer edge of the lower lung lobes. Two adjacent pleural strips, obtained from a single lobe and representing a single tissue sample, were tied at either end and independently attached to a metal support rod. One rod was attached to a Grass force-displacement transducer (Model FTO3C, product of Grass Medical Instruments Co., Quincy, Mass., USA). […] All tissues were placed in 10 ml jacketed tissue baths maintained at 37° C. The tissue baths were continuously aerated and contained a modified Krebs solution of the following composition (millimolar) NaCl, 118.2; KCl, 4.6; CaCl2.2H2O, 2.5; MgSO4.7H2O, 1.2; NaHCO3, 24.8; KH2PO4, 1.0; and dextrose 10.0. Pleural strips from the opposite lobes of the lung were used for paired experiments. […] The tissues were allowed to equilibrate for 45 min. as the bath fluid was changed periodically.
Initially tissues were challenged 3 times with KCl (40 mM) to test tissue viability and to obtain a consistent response. After recording the maximal response to KCl, the tissues were washed and allowed to return to baseline before the next challenge. Cumulative concentration-response curves were obtained from pleural strips by increasing the agonist concentration (sPLA2) in the tissue bath by half-log10 increments while the previous concentration remained in contact with the tissues (Ref.1, supra.) Agonist concentration was increased after reaching the plateau of the contraction elicited by the preceding concentration. One concentration-response curve was obtained from each tissue. To minimize variability between tissues obtained from different animals, contractile responses were expressed as a percentage of the maximal response obtained with the final KCl challenge. When studying the effects of various drugs on the contractile effects of sPLA2, the compounds and their respective vehicles were added to the tissues 30 min. prior to star ting the sPLA2 concentration-response curves.
Data from different experiments were pooled and presented as a percentage of the maximal KCl responses (mean±S.E.). […] 163, (Ref.2) The model includes four parameters: the maximum tissue response which was assumed the same for each curve, the ED50 for the control curve, the steepness of the curves, and the pA2, the concentration of antagonist that requires a two-fold increase in agonist to achieve an equivalent response. […] 164 (Ref. 2).
To estimate the drug-induced suppression of the maximal responses, siPLA2 responses (10 ug/ml) were determined in the absence and presence of drug, and percent suppression was calculated for each pair of tissues.

[3] = diheptanoyl thio-PC substrate, pH 7.5, 40° C. for 30 minutes, absorbance at 405 nanometers, read-out: Inhibition of human secreted PLA2 IC50 ± mean deviation (3-4 tests)

SMILES	IC50 [1, 3]	IC50 [1]	further results
Cc1c(C(=O)C(N)=O)c2c(OC(C)C(=O)O)cccc2n1Cc1ccccc1 (racemic) [Example 2, dl-2-[[3-(2-Amino-1,2-dioxoethyl)-2-methyl-1-(phenylmethyl)-1H-indol-4-yl]oxy]propanoic Acid]	9 ± 1.73 nM	–	–
Cc1c(C(=O)C(N)=O)c2c(OCC(=O)O)cccc2n1Cc1ccccc1-c1ccccc1 [3 (Na salt), [[3-(2-amino-1,2-dioxoethyl)-1-([1,1′-biphenyl]-2-ylmethyl)-2-methyl-1H-indol-4-yl]oxy]acetic acid, sodium salt]	–	–	Kb [2]: 67.6 ± 11.8 nM
CCc1c(C(=O)C(N)=O)c2c(OCC(=O)O)cccc2n1Cc1cccc(Cl)c1 [10 (Na salt), [[3-(2-amino-1,2-dioxoethyl)1-[(3-chlorophenyl)methyl]-2-ethyl-1H-indol-4-yl]oxy]acetic acid, sodium salt]	–	–	Kb [2]: 110 ± 10 nM
Cc1c(C(=O)C(N)=O)c2c(OCC(=O)O)cccc2n1Cc1ccccc1 [Example 1, [[3-(2-Amino-1,2-dioxoethyl)-2-methyl-1-(phenylmethyl)-1H-indol-4-yl]oxy]acetic Acid]	–	10.7 ± 5.51 nM	Kb [2]: 143 ± 67 nM
Cc1c(C(=O)C(N)=O)c2c(OCC(=O)O)cccc2n1Cc1ccccc1-c1ccccc1 [Example 3, [[3-(2-Amino-1,2-dioxoethyl)-1-([1,1′-biphenyl]-2-ylmethyl)-2-methyl-1H-indol-4-yl]oxy]acetic Acid]	–	5.33 ± 1.15 nM	–
Cc1c(C(=O)C(N)=O)c2c(OCC(=O)O)cccc2n1Cc1cccc(-c2ccccc2)c1 [Example 4, [[3-(2-Amino-1,2-dioxoethyl)-1-([1,1′-biphenyl]-3-ylmethyl)-2-methyl-1H-indol-4-yl]oxy]acetic Acid]	–	9.69 ± 1.14 nM	–
Cc1c(C(=O)C(N)=O)c2c(OCC(=O)O)cccc2n1Cc1ccc(-c2ccccc2)cc1 [Example 5, [[3-(2-Amino-1,2-dioxoethyl)-1-([1,1′-biphenyl]-4-ylmethyl)-2-methyl-1H-indol-4-yl]oxy]acetic Acid]	–	49 ± 11.5 nM	–
Cc1c(C(=O)C(N)=O)c2c(OCC(=O)O)cccc2n1Cc1c(Cl)cccc1Cl [Example 6, [[3-(2-Amino-1,2-dioxoethyl)-1-[(2,6-dichlorophenyl)methyl]-2-methyl-1H-indol-4-yl]oxy]acetic Acid]	6 ± 1 nM	–	–
Cc1c(C(=O)C(N)=O)c2c(OCC(=O)O)cccc2n1Cc1ccc(F)cc1 [Example 7, [[3-(2-Amino-1,2-dioxoethyl)-1-[4(-fluorophenyl)methyl]-2-methyl-1H-indol-4-yl]oxy]acetic Acid]	–	6 ± 1 nM	–
Cc1c(C(=O)C(N)=O)c2c(OCC(=O)O)cccc2n1Cc1cccc2ccccc12 [Example 8, [[3-(2-Amino-1,2-dioxoethyl)-2-methyl-1-[(1-naphthalenyl)methyl]-1H-indol-4-yl]oxy]acetic Acid]	–	32.8 ± 7.04 nM	–
CCc1c(C(=O)C(N)=O)c2c(OCC(=O)O)cccc2n1Cc1cccc(Cl)c1 [Example 10, [[3-(2-Amino-1,2-dioxoethyl)-1-[(3-chlorophenyl)methyl]-2-ethyl-1H-indol-4-yl]oxy]acetic Acid]	–	6.67 ± 2.89 nM	–
CCc1c(C(=O)C(N)=O)c2c(OCC(=O)O)cccc2n1Cc1ccccc1-c1ccccc1 [Example 11, [[3-(2-Amino-1,2-dioxoethyl)-1-([1,1′-biphenyl]-2-ylmethyl)-2-ethyl-1H-indol-4-yl]oxy]acetic Acid]	–	4.33 ± 2.31 nM	Kb [2]: 57 ± 11 nM
CCCc1c(C(=O)C(N)=O)c2c(OCC(=O)O)cccc2n1Cc1ccccc1-c1ccccc1 [Example 12, [[3-(2-amino-1,2-dioxoethyl)-1-([1,1′-biphenyl]-2-ylmethyl)-2-propyl-1H-indol-4-yl]oxy]acetic Acid]	82.2 ± 18 nM	–	–
NC(=O)C(=O)c1c(C2CC2)n(Cc2ccccc2)c2cccc(OCC(=O)O)c12 [Example 13, [[3-(2-Amino-1,2-dioxoethyl)-2-cyclopropyl-1-(phenylmethyl)-1H-indol-4-yl]oxy]acetic Acid]	–	27.6 ± 13.1 nM	–
NC(=O)C(=O)c1c(C2CC2)n(Cc2ccccc2-c2ccccc2)c2cccc(OCC(=O)O)c12 [Example 14, [[3-(2-Amino-1,2-dioxoethyl)-1-([1,1′-biphenyl]-2-ylmethyl)-2-cyclopropyl-1H-indol-4-yl]oxy]acetic Acid]	–	5.57 ± 2.89 nM	Kb [2]: 75 ± 9 nM
CCc1c(C(=O)C(N)=O)c2cc(OCCCC(=O)O)ccc2n1Cc1ccccc1 [Example 15]	210 ± 60 nM	–	–
NC(=O)C(=O)c1cn(Cc2ccccc2)c2ccc(OCCCC(=O)O)cc12 [Example 16, 4-[[3-(2-Amino-1,2-dioxoethyl)-1-(phenylmethyl)-H-indol-5-yl]oxy]butanoic Acid]	62000 nM	–	activity in inhibiting sPLA2 (in words) ([1]; comment on Table I): much less active
CCc1c(C(=O)C(N)=O)c2c(NCC(=O)O)cccc2n1Cc1ccccc1 [Example 17, [[3-(Aminooxoacetyl)-2-ethyl-1-(phenylmethyl)-1H-indol-4-yl]amino]acetic Acid]	1150 ± 120 nM	–	–
